Laboratory results reported in ChEMBL document CHEMBL5532639, “Heterocyclic pyrimidine derivatives as promising antibacterial agents” (Eur J Med Chem, 2023).
In brackets after ≈: the same amount, converted by molar mass.

Experiments:
Format in all cases: functional
Escherichia coli [1] = experiment: Antibacterial activity against Escherichia coli assessed as reduction in bacterial growth incubated for 16 to 20 hrs by Mueller-Hinton broth based two-fold serial dilution method; conditions: time 16-20 hrs
Staphylococcus aureus [2] = experiment: Antibacterial activity against Staphylococcus aureus assessed as reduction in bacterial growth incubated for 16 to 20 hrs by Mueller-Hinton broth based two-fold serial dilution method; conditions: time 16-20 hrs
Klebsiella pneumoniae = experiment: Antibacterial activity against Klebsiella pneumoniae assessed as reduction in bacterial growth incubated for 16 to 20 hrs by Mueller-Hinton broth based two-fold serial dilution method; conditions: time 16-20 hrs
Streptococcus pyogenes = experiment: Antibacterial activity against Streptococcus pyogenes assessed as reduction in microbial growth incubated for 24 hrs by broth micro-dilution method
Pseudomonas aeruginosa [3] = experiment: Antibacterial activity against Pseudomonas aeruginosa assessed as reduction in bacterial growth incubated for 24 hrs by broth microdilution method
Staphylococcus aureus [4] = experiment: Antibacterial activity against Staphylococcus aureus assessed as inhibition of bacterial growth incubated for 4 to 20 hrs by resazurin based microplate reader analysis; conditions: time 4-20 hrs
Escherichia coli [5] = experiment: Antibacterial activity against Escherichia coli assessed as inhibition of bacterial growth incubated for 4 to 20 hrs by resazurin based microplate reader analysis; conditions: time 4-20 hrs
Bacillus subtilis = experiment: Antibacterial activity against Bacillus subtilis assessed as inhibition of bacterial growth incubated for 4 to 20 hrs by resazurin based microplate reader analysis; conditions: time 4-20 hrs
Pseudomonas aeruginosa [6] = experiment: Antibacterial activity against Pseudomonas aeruginosa assessed as inhibition of bacterial growth incubated for 4 to 20 hrs by resazurin based microplate reader analysis; conditions: time 4-20 hrs
Staphylococcus xylosus = experiment: Antibacterial activity against Staphylococcus xylosus assessed as reduction in bacterial growth
[7] = test system: Staphylococcus epidermidis; experiment: Antibacterial activity against Staphylococcus epidermidis assessed as reduction in bacterial growth measured after 24 hrs by broth microdilution method
Corynebacterium xerosis = experiment: Antibacterial activity against Corynebacterium xerosis
Staphylococcus hominis = experiment: Antibacterial activity against Staphylococcus hominis
Staphylococcus cohnii = experiment: Antibacterial activity against Staphylococcus cohnii
Acinetobacter sp. = experiment: Antibacterial activity against Acinetobacter sp.
Moraxella catarrhalis = experiment: Antibacterial activity against Moraxella catarrhalis assessed as reduction in bacterial growth by broth microdilution method
Corynebacterium sp. = experiment: Antibacterial activity against Corynebacterium sp.
Micrococcus luteus [8] = experiment: Antibacterial activity against Micrococcus luteus assessed as bacterial growth inhibition by paper disc diffusion assay
[9] = test system: Staphylococcus haemolyticus; experiment: Antibacterial activity against Staphylococcus haemolyticus clinical isolates assessed as bacterial growth inhibition measured after 16 to 24 hrs by broth microdilution assay; conditions: time 16-24 hrs
[10] = test system: Arcanobacterium haemolyticum; experiment: Antibacterial activity against Arcanobacterium haemolyticum
Micrococcus luteus [11] = experiment: Antibacterial activity against Micrococcus luteus assessed as reduction in microbial growth
Alcaligenes faecalis = experiment: Antibacterial activity against Alcaligenes faecalis
[12] = test system: Corynebacterium glutamicum; experiment: Antibacterial activity against Corynebacterium glutamicum
[13] = test system: Corynebacterium glutamicum; experiment: Antibacterial activity against Corynebacterium glutamicum ATCC 13032 cultured in MHB medium assessed as no bacterial growth incubated at 20 degC for 24 hrs by microdilution susceptibility test
Micrococcus sp. = experiment: Antibacterial activity against Micrococcus sp.
[14] = test system: Staphylococcus epidermidis; experiment: Antibacterial activity against Staphylococcus epidermidis assessed as reduction in microbial growth after 24 hrs by CLSI based microdilution method

Row | MIC (Escherichia coli [1]) [µg/mL] | MIC (Staphylococcus aureus [2]) [µg/mL] | MIC (Klebsiella pneumoniae) [µg/mL] | MIC (Streptococcus pyogenes) [µg/mL] | MIC (Pseudomonas aeruginosa [3]) [µg/mL] | MIC (Staphylococcus aureus [4]) [µg/mL] | MIC (Escherichia coli [5]) [µg/mL] | MIC (Bacillus subtilis) [µg/mL] | MIC (Pseudomonas aeruginosa [6]) [µg/mL] | MIC (Staphylococcus xylosus) [µg/mL] | MIC [7] [µg/mL] | MIC (Corynebacterium xerosis) [µg/mL] | MIC (Staphylococcus hominis) [µg/mL] | MIC (Staphylococcus cohnii) [µg/mL] | MIC (Acinetobacter sp.) [µg/mL] | MIC (Moraxella catarrhalis) [µg/mL] | MIC (Corynebacterium sp.) [µg/mL] | MIC (Micrococcus luteus [8]) [µg/mL] | Compound | MIC [9] [µg/mL] | MIC [10] [µg/mL] | also measured
1 | 12.5 (≈ 22 µM) | 12.5 (≈ 22 µM) | 12.5 (≈ 22 µM) | 12.5 | 12.5 (≈ 22 µM) | – | – | – | – | – | – | – | – | – | – | – | – | – | Nc1c(-c2nc3ccccc3s2)c(-c2ccc(Cl)cc2)nc2nc(N/N=C/c3cccc([N+](=O)[O-])c3)[nH]c(=O)c12 | – | – | –
2 | – | – | – | – | – | 12.5 (≈ 23 µM) | 50 (≈ 91.8 µM) | 12.5 (≈ 23 µM) | 50 (≈ 91.8 µM) | – | – | – | – | – | – | – | – | – | Cc1nc(NC(=O)c2cc(C(F)(F)F)cc(C(F)(F)F)c2)c2c(C(F)(F)F)cc(-c3ccccc3)nc2n1 | – | – | –
3 | – | – | – | – | – | – | – | – | – | 100 (≈ 223 µM) | 100 (≈ 223 µM) | 30 (≈ 67 µM) | 100 (≈ 223 µM) | 100 (≈ 223 µM) | 50 (≈ 112 µM) | 100 (≈ 223 µM) | 100 (≈ 223 µM) | 100 (≈ 223 µM) | Clc1ccc(C(Cc2ccccc2)c2c(Cl)nc(N3CCNCC3)nc2Cl)cc1 (centres undefined) | 100 (≈ 223 µM) | 10 (≈ 22.3 µM) | MIC (Micrococcus luteus [11]): 100 µg/mL; MIC (Alcaligenes faecalis): > 500 µg/mL; MIC [12]: 100 µg/mL (≈ 223 µM); MIC [13]: 50 µg/mL (≈ 112 µM); MIC (Micrococcus sp.): 100 µg/mL (≈ 223 µM); MIC [14]: 100 µg/mL
4 | – | – | – | – | – | – | – | – | – | 20 (≈ 50.2 µM) | > 100 | 20 (≈ 50.2 µM) | 100 (≈ 251 µM) | 100 (≈ 251 µM) | > 1000 | 300 (≈ 754 µM) | 100 (≈ 251 µM) | 20 (≈ 50.2 µM) | Clc1ccc(C(Cc2ccccc2)c2c(Cl)nc(Cl)nc2Cl)cc1 (centres undefined) | 100 (≈ 251 µM) | 10 (≈ 25.1 µM) | MIC (Micrococcus luteus [11]): 20 µg/mL; MIC (Alcaligenes faecalis): 1000 µg/mL (≈ 2510 µM); MIC [12]: 30 µg/mL (≈ 75.4 µM); MIC [13]: 30 µg/mL (≈ 75.4 µM); MIC (Micrococcus sp.): 30 µg/mL (≈ 75.4 µM); MIC [14]: 100 µg/mL
5 | 12.5 (≈ 23.2 µM) | 25 (≈ 46.4 µM) | 12.5 (≈ 23.2 µM) | 12.5 | 25 (≈ 46.4 µM) | – | – | – | – | – | – | – | – | – | – | – | – | – | Nc1cccc(/C=N/Nc2nc3nc(-c4ccc(Cl)cc4)c(-c4nc5ccccc5s4)c(N)c3c(=O)[nH]2)c1 | – | – | –
6 | – | – | – | – | – | – | – | – | – | 100 (≈ 264 µM) | 100 (≈ 264 µM) | 30 (≈ 79.2 µM) | 100 (≈ 264 µM) | 100 (≈ 264 µM) | > 500 | 500 (≈ 1320 µM) | 100 (≈ 264 µM) | 100 (≈ 264 µM) | Nc1nc(Cl)c(C(Cc2ccccc2)c2ccc(Cl)cc2)c(Cl)n1 (centres undefined) | 100 (≈ 264 µM) | 10 (≈ 26.4 µM) | MIC (Micrococcus luteus [11]): 100 µg/mL; MIC (Alcaligenes faecalis): > 500 µg/mL; MIC [12]: 100 µg/mL (≈ 264 µM); MIC [13]: 100 µg/mL (≈ 264 µM); MIC (Micrococcus sp.): 100 µg/mL (≈ 264 µM); MIC [14]: 100 µg/mL
7 | – | – | – | – | – | – | – | – | – | 100 (≈ 207 µM) | 75 (≈ 156 µM) | 30 (≈ 62.2 µM) | 75 (≈ 156 µM) | 75 (≈ 156 µM) | 30 (≈ 62.2 µM) | 50 (≈ 104 µM) | 75 (≈ 156 µM) | 75 (≈ 156 µM) | Clc1ccc(C(Cc2cccc(Cl)c2)c2c(Cl)nc(N3CCNCC3)nc2Cl)cc1 (centres undefined) | 50 (≈ 104 µM) | 10 (≈ 20.7 µM) | MIC (Micrococcus luteus [11]): 100 µg/mL; MIC (Alcaligenes faecalis): > 500 µg/mL; MIC [12]: 50 µg/mL (≈ 104 µM); MIC [13]: 50 µg/mL (≈ 104 µM); MIC (Micrococcus sp.): 75 µg/mL (≈ 156 µM); MIC [14]: 75 µg/mL
8 | – | – | – | – | – | 12.5 (≈ 30.5 µM) | 50 (≈ 122 µM) | 12.5 (≈ 30.5 µM) | 50 (≈ 122 µM) | – | – | – | – | – | – | – | – | – | Cc1nc(NC(=O)c2ccncc2)c2c(C(F)(F)F)cc(-c3ccccc3)nc2n1 | – | – | –
9 | 25 (≈ 44.8 µM) | 25 (≈ 44.8 µM) | 50 (≈ 89.5 µM) | 25 | 50 (≈ 89.5 µM) | – | – | – | – | – | – | – | – | – | – | – | – | – | Nc1c(-c2nc3ccccc3s2)c(-c2ccc(Cl)cc2)nc2nc(N/N=C/c3cccc(Cl)c3)[nH]c(=O)c12 | – | – | –
10 | 25 (≈ 46.1 µM) | 12.5 (≈ 23.1 µM) | 25 (≈ 46.1 µM) | 12.5 | 25 (≈ 46.1 µM) | – | – | – | – | – | – | – | – | – | – | – | – | – | Nc1c(-c2nc3ccccc3s2)c(-c2ccc(Cl)cc2)nc2nc(N/N=C/c3cccc(F)c3)[nH]c(=O)c12 | – | – | –
11 | – | – | – | – | – | 12.5 (≈ 24.7 µM) | 50 (≈ 98.7 µM) | 12.5 (≈ 24.7 µM) | 50 (≈ 98.7 µM) | – | – | – | – | – | – | – | – | – | CCCCCCCc1ccc(C(=O)Nc2nc(C)nc3nc(-c4ccccc4)cc(C(F)(F)F)c23)cc1 | – | – | –

Row | Compound | MIC (Escherichia coli [1]) [µg/mL] | MIC (Staphylococcus aureus [2]) [µg/mL] | MIC (Klebsiella pneumoniae) [µg/mL] | MIC (Streptococcus pyogenes) [µg/mL] | MIC (Pseudomonas aeruginosa [3]) [µg/mL] | MIC (Staphylococcus aureus [4]) [µg/mL] | MIC (Escherichia coli [5]) [µg/mL] | MIC (Bacillus subtilis) [µg/mL] | MIC (Pseudomonas aeruginosa [6]) [µg/mL] | MIC (Staphylococcus xylosus) [µg/mL] | MIC [7] [µg/mL] | MIC (Corynebacterium xerosis) [µg/mL] | MIC (Staphylococcus hominis) [µg/mL] | MIC (Staphylococcus cohnii) [µg/mL] | MIC (Acinetobacter sp.) [µg/mL] | MIC (Moraxella catarrhalis) [µg/mL] | MIC (Corynebacterium sp.) [µg/mL] | MIC (Micrococcus luteus [8]) [µg/mL] | MIC [9] [µg/mL] | MIC [10] [µg/mL] | also measured
12 | CC1(C)S[C@@H]2[C@H](NC(=O)[C@H](N)c3ccc(O)cc3)C(=O)N2[C@H]1C(=O)O [AMOXICILLIN] | – | – | – | – | – | 0.39 (≈ 1.07 µM) | 0.5 (≈ 1.37 µM) | 0.39 (≈ 1.07 µM) | 1 (≈ 2.74 µM) | – | – | – | – | – | – | – | – | – | – | – | –
